Results: ChEMBL document CHEMBL3616392, “Design, synthesis and biological evaluation of novel tetrahydroisoquinoline derivatives as potential PDE4 inhibitors” (Bioorg Med Chem Lett, 2015)

Experiments:
[1] = biological target: 3',5'-cyclic-AMP phosphodiesterase 4B (Homo sapiens, UniProt Q07343); assay: Inhibition of PDE4B isolated from human U937 cells using [3H]-cAMP as substrate after 30 mins; type: cell-free, U-937
[2] = biological target: 3',5'-cyclic-AMP phosphodiesterase 4D (Homo sapiens) (UniProt Q08499); assay: Inhibition of PDE4D isolated from human U937 cells using [3H]-cAMP as substrate at 20 uM after 30 mins; type: cell-free; conditions: U-937
3',5'-cyclic-AMP phosphodiesterase 4D (Homo sapiens), sequence (Q08499 whole entry): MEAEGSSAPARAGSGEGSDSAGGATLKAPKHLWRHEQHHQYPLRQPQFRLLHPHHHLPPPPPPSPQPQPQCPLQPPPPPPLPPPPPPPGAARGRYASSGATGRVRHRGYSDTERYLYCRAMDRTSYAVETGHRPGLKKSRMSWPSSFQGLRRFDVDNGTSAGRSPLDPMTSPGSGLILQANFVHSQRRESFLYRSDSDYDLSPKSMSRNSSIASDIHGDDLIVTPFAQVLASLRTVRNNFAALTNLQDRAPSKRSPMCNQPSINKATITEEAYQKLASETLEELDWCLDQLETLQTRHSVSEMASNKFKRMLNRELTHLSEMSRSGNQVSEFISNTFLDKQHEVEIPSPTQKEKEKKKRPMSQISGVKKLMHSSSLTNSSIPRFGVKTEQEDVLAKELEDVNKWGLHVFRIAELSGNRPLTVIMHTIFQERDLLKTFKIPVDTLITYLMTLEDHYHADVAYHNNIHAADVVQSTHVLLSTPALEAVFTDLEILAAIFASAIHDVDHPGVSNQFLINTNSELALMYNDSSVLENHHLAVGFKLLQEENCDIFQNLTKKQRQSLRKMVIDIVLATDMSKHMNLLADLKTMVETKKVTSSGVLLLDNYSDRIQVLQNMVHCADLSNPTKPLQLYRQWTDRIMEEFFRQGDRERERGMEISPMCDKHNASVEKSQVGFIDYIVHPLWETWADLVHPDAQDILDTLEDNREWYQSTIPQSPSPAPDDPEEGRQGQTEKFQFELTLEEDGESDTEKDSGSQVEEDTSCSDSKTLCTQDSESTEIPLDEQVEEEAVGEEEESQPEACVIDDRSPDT

3',5'-cyclic-AMP phosphodiesterase 4B, sequence (Q07343 whole entry): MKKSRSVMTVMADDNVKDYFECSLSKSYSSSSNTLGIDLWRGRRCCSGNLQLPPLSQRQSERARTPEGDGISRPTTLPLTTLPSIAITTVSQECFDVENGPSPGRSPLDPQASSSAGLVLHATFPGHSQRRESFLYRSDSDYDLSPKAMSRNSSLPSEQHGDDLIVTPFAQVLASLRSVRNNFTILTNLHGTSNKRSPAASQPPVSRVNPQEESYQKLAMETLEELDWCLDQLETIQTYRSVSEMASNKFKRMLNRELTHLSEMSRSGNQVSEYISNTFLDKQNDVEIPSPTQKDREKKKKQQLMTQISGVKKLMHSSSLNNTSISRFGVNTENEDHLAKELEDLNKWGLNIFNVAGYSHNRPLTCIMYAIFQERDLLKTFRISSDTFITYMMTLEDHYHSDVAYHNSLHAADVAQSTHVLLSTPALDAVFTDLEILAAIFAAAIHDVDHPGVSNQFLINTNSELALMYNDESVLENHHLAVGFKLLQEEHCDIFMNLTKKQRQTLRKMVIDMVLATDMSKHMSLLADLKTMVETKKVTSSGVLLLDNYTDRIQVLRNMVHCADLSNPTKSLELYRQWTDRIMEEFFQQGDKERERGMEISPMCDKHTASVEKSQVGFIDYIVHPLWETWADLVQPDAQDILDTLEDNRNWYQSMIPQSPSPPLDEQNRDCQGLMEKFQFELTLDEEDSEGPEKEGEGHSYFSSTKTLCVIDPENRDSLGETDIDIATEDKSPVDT

| SMILES | IC50 [1] | inhibition [2] |
| --- | --- | --- |
| COc1cc(CN2CCc3cc(OC)c(OC4CCCC4)cc3C2)ccc1O | 26.8 µM |  |
| COc1cc(C(=O)N2CCc3cc(OC)c(OC4CCCC4)cc3C2)ccc1O | 2.3 µM | 17.4% |
| COc1cc2c(cc1OC1CCCC1)CN(Cc1ccncc1)CC2 | 38.1 µM |  |
| COc1cc2c(cc1OC1CCCC1)CN(C(=O)[C@H]1CC[C@H](N)CC1)CC2 | > 50 µM |  |
| COc1cc2c(cc1OC1CCCC1)CN(C(=O)c1ccccc1OC)CC2 | 37 µM |  |
| COc1cc2c(cc1OC1CCCC1)CN(C(=O)c1ccccc1)CC2 | 23.5 µM |  |
| COc1cc2c(cc1OC1CCCC1)CN(C(=O)c1ccccn1)CC2 | 37.9 µM |  |
| COc1cc2c(cc1OC1CCCC1)CN(C(=O)c1ccccc1F)CC2 | 23.3 µM |  |
| COc1cc2c(cc1OC1CCCC1)CN(Cc1ccccc1F)CC2 | 43 µM |  |
| COc1cc2c(cc1OC1CCCC1)CN(C(=O)c1ccccc1Cl)CC2 | 15.5 µM | 15.3% |
| COc1cc2c(cc1OC1CCCC1)CN(C(=O)c1ccncc1)CC2 | 15.7 µM | 12.1% |
| COc1cc2c(cc1OC1CCCC1)CN(C(=O)C1=C[C@@H](O)[C@@H](O)[C@H](O)C1)CC2 | > 50 µM |  |
